From patent US7063946B2, “Methods, reagents, kits and apparatus for protein function analysis” (Meso Scale Technologies, LLC., priority 2001, dated 2006)

target: T1, EphB4 (Mus musculus, UniProt P54761); test: Kinase inhibitor profiling, autophosphorylation; assay type: biochemical
T1 construct: specificity data for proteins generated from a library of eighteen full-length clones; host or cells: rabbit reticulocyte lysate, TnT coupled in vitro transcription/translation (cell-free)
T1 sequence (P54761 16-987): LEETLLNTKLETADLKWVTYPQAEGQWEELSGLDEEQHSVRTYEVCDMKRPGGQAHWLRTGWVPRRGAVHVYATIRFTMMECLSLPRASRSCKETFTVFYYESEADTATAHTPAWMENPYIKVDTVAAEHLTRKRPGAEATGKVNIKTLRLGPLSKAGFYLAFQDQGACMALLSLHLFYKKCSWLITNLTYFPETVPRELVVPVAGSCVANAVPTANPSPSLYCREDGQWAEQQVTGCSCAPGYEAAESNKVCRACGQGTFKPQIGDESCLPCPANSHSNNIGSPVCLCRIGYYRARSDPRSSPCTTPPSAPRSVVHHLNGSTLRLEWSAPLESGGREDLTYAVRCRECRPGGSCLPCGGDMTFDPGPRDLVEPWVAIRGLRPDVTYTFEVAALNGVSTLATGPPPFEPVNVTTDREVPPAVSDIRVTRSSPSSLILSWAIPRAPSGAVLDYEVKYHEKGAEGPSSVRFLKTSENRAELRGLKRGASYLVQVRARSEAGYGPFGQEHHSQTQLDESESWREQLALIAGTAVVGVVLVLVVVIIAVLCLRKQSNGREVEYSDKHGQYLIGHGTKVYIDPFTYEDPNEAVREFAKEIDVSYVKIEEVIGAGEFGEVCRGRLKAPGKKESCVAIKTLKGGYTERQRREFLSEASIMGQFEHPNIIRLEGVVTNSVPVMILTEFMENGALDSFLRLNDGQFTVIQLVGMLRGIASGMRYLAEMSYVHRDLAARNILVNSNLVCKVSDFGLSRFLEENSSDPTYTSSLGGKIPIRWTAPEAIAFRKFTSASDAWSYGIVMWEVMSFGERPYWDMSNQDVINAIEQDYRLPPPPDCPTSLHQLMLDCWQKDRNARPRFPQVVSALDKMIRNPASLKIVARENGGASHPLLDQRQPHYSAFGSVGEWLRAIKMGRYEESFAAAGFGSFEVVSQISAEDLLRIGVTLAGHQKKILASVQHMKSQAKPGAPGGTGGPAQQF

Row | Molecule | Inhibition specificity towards Autophosphorylation at 10X IC50, Ephb4
1 | COC(=O)c1ccc(NCc2cc(O)ccc2O)cc1 [AG-957] | L (low inhibition (“L”=between 50–75% of the activity remaining))
2 | COc1cc2ncnc(Nc3ccc(Cl)cc3F)c2cc1OC [VEGFR inhibitor] | L (low inhibition (“L”=between 50–75% of the activity remaining))
3 | Cc1cc2ncc(-c3ccc(O)c(O)c3)nc2cc1C [AG-1433] | H (high inhibition (“H”=less than 25% of the activity remaining))
4 | Erbstatin analog | L (low inhibition (“L”=between 50–75% of the activity remaining))
5 | COc1c(C=O)c(O)cc2c1C(=O)c1ccccc1C2=O [Damnacanthal] | H (high inhibition (“H”=less than 25% of the activity remaining))
